The values that follow come from PubChem BioAssay AID602323 (The Scripps Research Institute Molecular Screening Center, 2012).

Holding throughout (assay): serine hydrolase inhibition in mouse brain membranes, late-stage follow-up, selectivity assay for DAGLb inhibitor project, biochemical, gel-based competitive ABPP, fluorescence, set 2 (AID 602323)
Assay [1] deals with Diacylglycerol lipase-beta (Mus musculus) (UniProt Q91WC9). Conditions: mouse brain membrane, DAGLb, at 1 µM, active compounds read high.
Chain of Diacylglycerol lipase-beta (Mus musculus) (Q91WC9 whole entry, looked up): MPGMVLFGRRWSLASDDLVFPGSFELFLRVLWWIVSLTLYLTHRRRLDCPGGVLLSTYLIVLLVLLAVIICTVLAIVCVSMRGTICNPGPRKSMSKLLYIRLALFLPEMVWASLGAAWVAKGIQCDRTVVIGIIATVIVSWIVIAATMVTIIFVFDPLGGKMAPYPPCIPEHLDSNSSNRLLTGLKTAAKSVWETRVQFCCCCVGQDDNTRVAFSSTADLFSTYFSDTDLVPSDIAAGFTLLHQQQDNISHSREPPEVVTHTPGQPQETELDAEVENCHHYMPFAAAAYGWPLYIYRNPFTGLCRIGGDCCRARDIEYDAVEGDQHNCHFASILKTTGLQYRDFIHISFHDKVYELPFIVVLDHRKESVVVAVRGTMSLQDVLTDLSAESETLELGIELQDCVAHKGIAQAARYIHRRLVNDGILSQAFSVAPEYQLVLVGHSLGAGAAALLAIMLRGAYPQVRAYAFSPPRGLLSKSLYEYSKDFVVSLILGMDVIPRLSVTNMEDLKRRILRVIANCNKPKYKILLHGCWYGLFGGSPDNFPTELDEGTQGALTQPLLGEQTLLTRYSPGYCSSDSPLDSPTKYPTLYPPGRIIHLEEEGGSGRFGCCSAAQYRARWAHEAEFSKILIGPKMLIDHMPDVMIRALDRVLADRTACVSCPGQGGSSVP
For assay [2], the target named is Platelet-activating factor acetylhydrolase (Mus musculus) (UniProt Q60963). Conditions: mouse brain membrane, PLA2G7, at 1 µM, active compounds read high.
Chain of Platelet-activating factor acetylhydrolase (Mus musculus) (Q60963 whole entry, looked up): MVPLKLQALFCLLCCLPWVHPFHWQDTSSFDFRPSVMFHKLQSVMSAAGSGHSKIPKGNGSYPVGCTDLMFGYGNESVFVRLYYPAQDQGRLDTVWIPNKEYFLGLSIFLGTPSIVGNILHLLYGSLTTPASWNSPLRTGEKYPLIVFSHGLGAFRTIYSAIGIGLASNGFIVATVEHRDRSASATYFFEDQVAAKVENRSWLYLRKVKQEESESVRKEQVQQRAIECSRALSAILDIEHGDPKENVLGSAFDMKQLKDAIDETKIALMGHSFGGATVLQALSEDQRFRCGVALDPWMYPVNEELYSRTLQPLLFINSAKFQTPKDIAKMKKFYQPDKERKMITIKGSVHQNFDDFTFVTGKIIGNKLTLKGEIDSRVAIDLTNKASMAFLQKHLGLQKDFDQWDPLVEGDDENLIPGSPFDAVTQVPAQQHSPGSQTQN
Assay [3] concerns the target Monoacylglycerol lipase ABHD6 (Mus musculus) (UniProt Q8R2Y0). The settings on record: mouse brain membrane, at 1 µM, active compounds read high.

The source made the active and inactive calls. How the calls were made is not given here.

Chain of Monoacylglycerol lipase ABHD6 (Mus musculus) (Q8R2Y0 whole entry, looked up): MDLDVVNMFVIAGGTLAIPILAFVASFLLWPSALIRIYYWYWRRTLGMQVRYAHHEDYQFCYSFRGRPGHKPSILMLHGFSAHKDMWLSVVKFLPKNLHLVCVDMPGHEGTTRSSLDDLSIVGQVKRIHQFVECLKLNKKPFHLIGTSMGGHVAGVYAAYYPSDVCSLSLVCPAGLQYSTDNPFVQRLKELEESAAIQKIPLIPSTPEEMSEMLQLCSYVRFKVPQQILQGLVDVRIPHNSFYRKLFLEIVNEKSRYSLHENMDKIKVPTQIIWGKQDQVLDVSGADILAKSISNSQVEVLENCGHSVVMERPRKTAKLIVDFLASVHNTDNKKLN

Consider `O=C(N1CCCCC1Cc1ccccc1)n1cc(-c2ccc(-c3ccccc3C(F)(F)F)cc2)nn1` (stereo not given), for which the figures for the inhibition in assay [1], in assay [2] and in assay [3] were 75%, 25% (inactive) and 90%, respectively.

For `Cc1ccccc1-c1ccc(-c2cn(C(=O)N3CCCCC3Cc3ccccc3)nn2)cc1` (stereo not given), the results for the inhibition in assay [1], in assay [2] and in assay [3] were 80%, 80% and 90%, respectively.

`O=C(N1CCCCC1Cc1ccccc1)n1cc(-c2ccc(-c3ccccc3Cl)cc2)nn1` (stereo not given): the inhibition in assay [1], in assay [2] and in assay [3] was 90% throughout.

As for `CC(C)CN(CCc1ccccc1)C(=O)n1cc(-c2ccc(OC(F)(F)F)cc2)nn1`, the results for the inhibition in assay [1], in assay [2] and in assay [3] were 90%, 95% and 95%, respectively.

Take `COc1ccccc1-c1ccc(-c2cn(C(=O)N3CCCCC3Cc3ccccc3)nn2)cc1` (stereo not given): the figures for the inhibition in assay [1], in assay [2] and in assay [3] were 85%, 25% (inactive) and 95%, respectively.

`O=C(N1CCCCC1Cc1ccccc1)n1cc(-c2ccc(-c3ccccc3CO)cc2)nn1` (stereo not given): the inhibition – broadly, how much of the control response was suppressed – was 90% in assay [1], 20% (inactive) in assay [2] and 95% in assay [3].

Consider `O=C(N1CCCCC1Cc1ccccc1)n1cc(-c2cc(F)cc(F)c2)nn1` (stereo not given), for which the results for the inhibition in assay [1], in assay [2] and in assay [3] were 85%, 95% and 98%, respectively.

As for `O=C(N1CCCCC1Cc1ccccc1)n1cc(-c2ccc(OC(F)(F)F)cc2)nn1` (stereo not given), the inhibition in assay [1], in assay [2] and in assay [3] was 90% in each case.

For the compound `O=C(N1CCCCC1Cc1ccccc1)n1cc(-c2ccc(-c3cccc(C(F)(F)F)c3)cc2)nn1` (stereo not given), the inhibition is 45% (inactive) in assay [1], 25% (inactive) in assay [2] and 95% in assay [3].

In the case of `O=C(N1CCCCC1Cc1ccccc1)n1cc(-c2ccc(-c3ccc(C(F)(F)F)cc3)cc2)nn1` (stereo not given), the inhibition in assay [1] was 25% (inactive); in assay [2] it was 50%; in assay [3] it was 80%.

For `O=C(N1CCCCC1Cc1ccccc1)n1cc(-c2ccc(-c3ccccc3)cc2)nn1` (stereo not given), the inhibition in assay [1] was 80%; in assay [2], 40% (inactive); in assay [3] it was 95%.

With `O=C(N1CCCCC1Cc1ccccc1)n1cc(-c2ccc(-c3ccc(OC(F)(F)F)cc3)cc2)nn1` (stereo not given), the inhibition in assay [1] is 20% (inactive); in assay [2], 50%; in assay [3], 90%.

For `O=C(N1CCCCC1Cc1ccccc1)n1cc(-c2ccc(-c3cccc(CO)c3)cc2)nn1` (stereo not given), the inhibition in assay [1] was 25% (inactive); in assay [2], 0% (inactive); in assay [3], 90%.

Regarding `O=C(N1CCCCC1Cc1ccccc1)n1cc(-c2ccccc2-c2ccccc2)nn1` (stereo not given), the inhibition in assay [1] is 75%; in assay [2], 40% (inactive); in assay [3], 95%.

Turning to `O=C(N1CCCCC1Cc1ccccc1)n1ncc(C(O)(c2ccccc2)c2ccccc2)n1` (stereo not given), the inhibition was 80% in assay [1], 0% (inactive) in assay [2] and 90% in assay [3].

As for `O=C(N1CCCCC1Cc1ccccc1)n1cc(-c2ccc(-c3ccc4c(c3)OCO4)cc2)nn1` (stereo not given), the figures for the inhibition in assay [1], in assay [2] and in assay [3] were 25% (inactive), 20% (inactive) and 90%, respectively.

Take `O=C(N1CCCCC1Cc1ccccc1)n1cc(-c2cccc(-c3ccccc3)c2)nn1` (stereo not given): the inhibition was 75% in assay [1], 30% (inactive) in assay [2] and 95% in assay [3].

As to `O=C(N1CCCCC1Cc1ccccc1)n1cc(-c2ccc(-c3ccoc3)cc2)nn1` (stereo not given), the inhibition in assay [1] was 60%; in assay [2], 45% (inactive); in assay [3] it was 90%.

As to `O=C(N(CCc1ccccc1)Cc1ccco1)n1cc(-c2ccc(OC(F)(F)F)cc2)nn1`, the inhibition in assay [1], in assay [2] and in assay [3] was 95% in each case.

Take `O=C(N1CCCCC1Cc1ccccc1)n1ncc(-c2ccc(OC(F)(F)F)cc2)n1` (stereo not given): the inhibition is 50% in assay [1], 90% in assay [2] and 70% in assay [3].

Take `O=C(N1CCCCC1Cc1ccccc1)n1cc(-c2ccc(Br)cc2)nn1` (stereo not given): the inhibition in assay [1] is 85%; in assay [2], 95%; in assay [3], 98%.

As for `O=C(N1CCCCC1Cc1ccccc1)n1cc(-c2ccc(-c3ccccc3OC(F)(F)F)cc2)nn1` (stereo not given), the results for the inhibition in assay [1], in assay [2] and in assay [3] were 80%, 60% and 95%, respectively.

Take `O=C(c1ccc(-c2ccc(-c3cn(C(=O)N4CCCCC4Cc4ccccc4)nn3)cc2)cc1)N1CCCCC1` (stereo not given): the inhibition was 20% (inactive) in assay [1], 0% (inactive) in assay [2] and 90% in assay [3].

For `O=C(c1ccc(-c2cn(C(=O)N3CCCCC3Cc3ccccc3)nn2)cc1)N1CCCCC1` (stereo not given), the inhibition in assay [1] is 95%; in assay [2] it was 30% (inactive); in assay [3], 95%.

On to `CC(C)(C)OC(=O)NCCCCCN(CCc1ccccc1)C(=O)n1cc(-c2ccc(OC(F)(F)F)cc2)nn1`, for which the inhibition in assay [1] was 95%; in assay [2] it was 95%; in assay [3], 90%.
